We go through 43 substances from patent US11214803B2, “Modulators of YAP1 expression” (Ionis Pharmaceuticals, Inc., priority 2019, dated 2022).

Marks after values point to notes of the source that are not given here. Strand notation (5' to 3'): a small letter for the sugar, then the base; units joined by * are phosphorothioate-linked, units joined directly phosphodiester-linked; [ ] holds rarer units or linkages, { } end groups; capitals alone tell only the bases. k = constrained ethyl (cEt); [5mC] = 5-methylcytosine; d = 2'-deoxy (DNA)

The subject of one data set is Yap1 mRNA. Description: Antisense inhibition of human Yap1 in A-431 cells by cEt gapmers, single dose (Example 2, RTS4814). Format: cell-based. As to conditions: A-431 cells, 5,000 cells per well, free uptake, 2,000 nM modified oligonucleotide, approx. 48 hours, RTS4814, normalized to RIBOGREEN; Table 4; asterisk (*) = targets amplicon region of primer probe set. Summed up: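 Each 16-nucleoside gapmer (ten-deoxy gap, three-cEt wings) is tested once at 2,000 nM in A-431 cells by free uptake. Yap1 mRNA after about 48 hours is measured by quantitative RT-PCR and expressed relative to untreated control.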
As to “716484 (k[5mC]*kA*k[5mC]*dT*dT*dT*dT*d[5mC]*d[5mC]*dA*dG*d[5mC]*dT*kA*kA*k[5mC]; antisense) [Compound 716484]”, the “YAP1 (% UTC)” value amounted to 35 % UTC.
On the same count and under the same terms, under “716481 (kT*k[5mC]*kA*dG*d[5mC]*dA*dT*dA*dG*dA*dA*dG*dT*kA*kG*kG; antisense) [Compound 716481]” stands 23 % UTC; under “716376 (k[5mC]*kG*kA*dA*dG*dA*dT*dG*d[5mC]*dT*dG*dA*dG*k[5mC]*kT*kG; antisense) [Compound 716376]”, 35 % UTC.
The same measure, in the same setting: next, “716457 (kA*kA*kA*dG*dG*dA*dT*dA*d[5mC]*dA*dT*dT*d[5mC]*k[5mC]*kA*k[5mC]; antisense) [Compound 716457]”: 61 % UTC.
Take “716547 (kG*kG*kT*dA*dT*dG*dA*dA*dT*dT*d[5mC]*dT*dG*kA*kA*kT; antisense) [Compound 716547]”: the “YAP1 (% UTC)” value was 44 % UTC.

The same data set, now with this note: Table 5; A-431 cells, 5,000 cells per well, free uptake, 2,000 nM modified oligonucleotide, approx. 48 hours; RTS4814; normalized to RIBOGREEN; Yap1 mRNA relative to untreated control cells.
With “716518 (antisense k[5mC]*kA*kA*dG*dG*dT*d[5mC]*d[5mC]*d[5mC]*d[5mC]*d[5mC]*dT*dA*kA*kA*kT) [Compound 716518]”, the “YAP1 (% UTC)” value was found to be 88 % UTC.

Still in this data set, the particulars now being: Table 6; A-431 cells, 5,000 cells per well, free uptake, 2,000 nM modified oligonucleotide, approx. 48 hours; RTS4814; normalized to RIBOGREEN; Yap1 mRNA relative to untreated control cells.
“716417 (kT*kG*kT*dA*dA*dG*dA*dA*dA*dG*d[5mC]*dT*dT*kT*k[5mC]*kT; antisense) [Compound 716417]”: the “YAP1 (% UTC)” value came to 78 % UTC.

Staying with this data set, now noted: Table 18; A-431 cells, 5,000 cells per well, free uptake, 2,000 nM modified oligonucleotide, approx. 48 hours; RTS4814; normalized to RIBOGREEN; Yap1 mRNA as percent of untreated control.
For “1075364 (k[5mC]*kG*kA*dA*dA*dA*dT*dA*dG*dT*dT*d[5mC]*dT*k[5mC]*kA*kA; antisense) [Compound 1075364]”, the “YAP1 (% UTC)” value was determined as 59 % UTC.
On to “1075460 (antisense kA*kA*kT*dA*dA*d[5mC]*d[5mC]*dA*dA*dG*dG*dA*dT*kA*kG*kT) [Compound 1075460]”, for which the “YAP1 (% UTC)” value was 30 % UTC.

The same data set, now with this note: Table 19; A-431 cells, 5,000 cells per well, free uptake, 2,000 nM modified oligonucleotide, approx. 48 hours; RTS4814; normalized to RIBOGREEN; Yap1 mRNA as percent of untreated control.
As for “1074277 (antisense kG*kT*k[5mC]*dT*dA*dG*d[5mC]*d[5mC]*dA*dA*dG*dA*dG*kG*kT*kG) [Compound 1074277]”, the “YAP1 (% UTC)” value came to 18 % UTC.

Staying with this data set, now noted: Table 20; Yap1 mRNA, percent of untreated control; 3-10-3 cEt gapmers targeting SEQ ID NO.: 1 and 2.
As to “1075238 (antisense k[5mC]*kT*kT*dA*dA*dA*d[5mC]*dA*dG*dG*dT*dG*d[5mC]*k[5mC]*kA*kA) [Compound 1075238]”, the “YAP1 (% UTC)” value came to 24 % UTC.

Still in this data set, the particulars now being: Table 21; Yap1 mRNA, percent of untreated control; 3-10-3 cEt gapmers targeting SEQ ID NO.: 1 and 2.
Take “1075431 (antisense kT*kA*kA*d[5mC]*dT*dA*dA*dA*d[5mC]*dT*dG*dA*dT*kT*k[5mC]*k[5mC]) [Compound 1075431]”: the “YAP1 (% UTC)” value came out at 74 % UTC.
With “1074439 (k[5mC]*kT*kG*dT*dG*dA*d[5mC]*dA*dT*dG*dA*dA*dG*k[5mC]*kA*kT; antisense) [Compound 1074439]”, the “YAP1 (% UTC)” value is reported as 2* % UTC.
In the case of “1075303 (kT*kA*kA*dA*d[5mC]*dT*dA*dA*dT*d[5mC]*dT*dA*d[5mC]*kA*kA*k[5mC]; antisense) [Compound 1075303]”, the “YAP1 (% UTC)” value is on record as 100 % UTC.
The same measure, in the same setting: next, “1074215 (antisense kG*k[5mC]*kT*d[5mC]*d[5mC]*dG*dG*d[5mC]*dG*dG*d[5mC]*dT*dT*kG*kA*kA) [Compound 1074215]”: 77 % UTC; “1076327 (kG*kA*kT*dA*dA*dG*d[5mC]*dA*dA*dG*dG*dT*dT*k[5mC]*kT*k[5mC]; antisense) [Compound 1076327]”: 7 % UTC; “1075783 (k[5mC]*kT*kT*dA*dA*dT*dT*dT*dA*d[5mC]*d[5mC]*dT*dG*kA*kA*k[5mC]; antisense) [Compound 1075783]”: 36 % UTC.

The same data set, now with this note: Table 23; Yap1 mRNA as percent of untreated control; 3-10-3 cEt gapmers; single dose.
As for “1074953 (antisense kG*kG*kG*dT*dT*dT*dT*dT*dG*dT*d[5mC]*dA*dT*k[5mC]*kA*kG) [Compound 1074953]”, the “YAP1 (% UTC)” value worked out at 32 % UTC.
Still for that read-out and setting: under “1075369 (kG*kG*kA*dG*dA*dA*dT*dA*dA*dG*d[5mC]*dA*dA*kT*k[5mC]*kA; antisense) [Compound 1075369]” stands 31 % UTC; under “1074249 (antisense kT*kG*kA*dT*d[5mC]*dG*dA*dT*dG*dT*dG*dA*dT*kT*kT*kA) [Compound 1074249]”, 23 % UTC.

The data set is the same for the next values; noted with them: Table 24; Yap1 mRNA as percent of untreated control; 3-10-3 cEt gapmers targeting SEQ ID NO.: 1, and 2.
Consider “1076490 (antisense k[5mC]*k[5mC]*kA*dA*dA*dA*dT*dA*dG*dG*dT*dG*dA*kG*kT*k[5mC]) [Compound 1076490]”, for which the “YAP1 (% UTC)” value is 2 % UTC.
Take “1075050 (antisense kA*k[5mC]*k[5mC]*d[5mC]*dA*dA*d[5mC]*dG*dG*dT*d[5mC]*dA*dT*kG*kT*kT) [Compound 1075050]”: the “YAP1 (% UTC)” value turned out to be 94 % UTC.

Still in this data set, the particulars now being: Table 25; Yap1 mRNA as percent of untreated control; 3-10-3 cEt gapmers targeting SEQ ID NO.: 1, and 2.
Turning to “1074635 (antisense kT*k[5mC]*k[5mC]*d[5mC]*dA*dA*dG*d[5mC]*dT*dG*dA*dG*dG*k[5mC]*kT*kT) [Compound 1074635]”, the “YAP1 (% UTC)” value came to 31 % UTC.
Consider “1076203 (kG*kT*kT*dA*dA*dT*dA*d[5mC]*dA*dT*dG*dG*d[5mC]*k[5mC]*kA*kA; antisense) [Compound 1076203]”, for which the “YAP1 (% UTC)” value was 29 % UTC.
“1076459 (antisense k[5mC]*kT*kT*d[5mC]*dA*dA*d[5mC]*dA*dA*dG*dA*d[5mC]*dA*kG*kG*kT) [Compound 1076459]”: the “YAP1 (% UTC)” value is on record as 4 % UTC.
Still for that read-out and setting: next, “1075691 (k[5mC]*kG*kT*d[5mC]*dA*dA*dA*dA*dT*dT*dA*dA*d[5mC]*kA*kG*kA; antisense) [Compound 1075691]”: 46 % UTC; “1075627 (kA*kT*kA*dA*dG*dA*dT*dA*dG*dT*d[5mC]*dG*dG*kT*kT*k[5mC]; antisense) [Compound 1075627]”: 19 % UTC.

Still in this data set, the particulars now being: Table 32; Yap1 mRNA, percent of untreated control; 3-10-3 cEt gapmers targeting SEQ ID NO.: 1, and 2.
Take “1074546 (k[5mC]*kA*k[5mC]*dT*d[5mC]*d[5mC]*d[5mC]*d[5mC]*dT*dA*dG*dG*d[5mC]*kA*k[5mC]*kT; antisense) [compound 1074546]”: the “YAP1 (% UTC)” value was determined as 33 % UTC.
As for “1074962 (antisense kA*kG*kG*d[5mC]*dA*dA*dG*d[5mC]*dA*dG*d[5mC]*dT*dA*kA*kA*kT) [compound 1074962]”, the “YAP1 (% UTC)” value is 78 % UTC.
Consider “1074322 (antisense kA*kG*kG*dG*d[5mC]*dT*dA*dA*d[5mC]*dT*d[5mC]*d[5mC]*dT*kG*kA*k[5mC]) [compound 1074322]”, for which the “YAP1 (% UTC)” value was determined as 94 % UTC.
Regarding “1075346 (antisense kG*kT*kA*dA*dG*dT*dA*dA*dA*dA*d[5mC]*dT*dG*k[5mC]*kT*kG) [compound 1075346]”, the “YAP1 (% UTC)” value is on record as 16 % UTC.
As to “1076210 (kA*kT*kT*dT*dA*dT*dA*dT*dG*d[5mC]*dT*d[5mC]*d[5mC]*k[5mC]*kT*k[5mC]; antisense) [compound 1076210]”, the “YAP1 (% UTC)” value is on record as 20 % UTC.
For “1075186 (kA*kA*kA*dT*d[5mC]*dG*dA*dT*dT*dA*dT*dT*d[5mC]*kA*kG*kA; antisense) [compound 1075186]”, the “YAP1 (% UTC)” value was determined as 73 % UTC.

Still in this data set, the particulars now being: Table 33; Yap1 mRNA, percent of untreated control; 3-10-3 cEt gapmers targeting SEQ ID NO.: 1, and 2.
Consider “1075283 (antisense k[5mC]*kG*kA*dA*dT*dA*dT*dA*dG*dA*dA*dA*dA*kA*kT*kG) [compound 1075283]”, for which the “YAP1 (% UTC)” value is recorded as 90 % UTC.
On to “1076083 (k[5mC]*kG*k[5mC]*dT*dA*dT*dA*dA*dA*dG*dT*dG*dG*k[5mC]*kA*kT; antisense) [compound 1076083]”, for which the “YAP1 (% UTC)” value stood at 46 % UTC.
With “1076051 (k[5mC]*kT*kT*dA*dA*d[5mC]*dT*dA*dT*dT*d[5mC]*dA*dG*k[5mC]*k[5mC]*k[5mC]; antisense) [compound 1076051]”, the “YAP1 (% UTC)” value worked out at 21 % UTC.

Still in this data set, the particulars now being: Yap1 mRNA as percent of untreated control; A-431 cells; 3-10-3 cEt gapmers targeting SEQ ID NO.: 1, and 2; Table 30.
In the case of “1074384 (kT*kT*k[5mC]*dA*dA*dG*dG*dT*dA*dG*dT*d[5mC]*dT*kG*kG*kG; antisense) [compound 1074384]”, the “YAP1 (% UTC)” value is given as 35 % UTC.
For “1075760 (kG*kA*kG*dA*dA*dA*dA*dA*d[5mC]*dT*dA*d[5mC]*dG*kG*kA*kT; antisense) [compound 1075760]”, the “YAP1 (% UTC)” value stood at 39 % UTC.
“1075568 (kT*kT*kA*dT*dT*dT*dA*dA*dG*dT*dT*dG*dG*kG*kA*kG; antisense) [compound 1075568]”: the “YAP1 (% UTC)” value was found to be 23 % UTC.

The data set is the same for the next values; noted with them: Yap1 mRNA as percent of untreated control; A-431 cells; 3-10-3 cEt gapmers targeting SEQ ID NO.: 1, and 2; Table 31.
As for “1075537 (k[5mC]*kT*kT*dT*dA*dA*dT*dT*dA*d[5mC]*d[5mC]*d[5mC]*dA*kA*kG*kG; antisense) [compound 1075537]”, the “YAP1 (% UTC)” value came out at 82 % UTC.
In the case of “1075825 (k[5mC]*k[5mC]*k[5mC]*d[5mC]*dT*dA*dA*dA*dG*dA*dA*dG*dA*kT*kT*kT; antisense) [compound 1075825]”, the “YAP1 (% UTC)” value amounted to 44 % UTC.
Same read-out and setting: under “1075057 (antisense k[5mC]*k[5mC]*kT*dT*dA*dG*dG*dA*dG*dT*dA*dG*dA*k[5mC]*kT*kG) [compound 1075057]” stands 14 % UTC; under “1074129 (k[5mC]*k[5mC]*k[5mC]*dG*dG*d[5mC]*dT*d[5mC]*d[5mC]*dA*d[5mC]*dT*dG*kG*kT*k[5mC]; antisense) [compound 1074129]”, 77 % UTC.
